Source: PubChem BioAssay AID2060362 (Molecular Pharmacology Branch, DTP, NCI, 2025)
Active and inactive are the calls of the source. How the source made its calls: active means viability on the fitted dose curve at most 10% of control; inactive means the rest.

System: 128128-338-R-J1-PDC spheroids, viability % test/control
Assay: Anticancer human tumor 128128-338-R-J1-PDC patient-derived melanoma cell line growth inhibition [TAK]
Settings: spheroids with HUVEC and MSC; for IC50: curve of first compound; for viability, T/C: stronger effect = lower value
Source text: Combinatorial screen of targeted agents with TAK-243 and ipatasertib in multi-cell type tumor spheroids
A high-throughput screen of multi-cell type tumor spheroids was designed to identify active combinations of targeted small molecules and TAK-243 or ipatasertib. Complex spheroids include a stromal component modeled by human endothelial cells (HUVEC) and fibroblasts modeled by human mesenchymal stem cells (MSCs). The concentration ranges selected for each drug and investigational agent were based upon clinically achievable concentrations if the clinical Cmax of the agent was known.
Compounds. The drugs and investigational agents: TAK-243 (785004), ipatasertib (767898), everolimus (733504), selumetinib (741078), bortezomib (756655), trametinib (758246), ixazomib (758254), vemurafenib (761431), dabrafenib (764134), sapanisertib (764658), alpelisib (765974), and copanlisib (816437), were obtained from the National Cancer Institute (NCI) Developmental Therapeutics Program Chemical Repository. The FDA-approved anticancer drug set is available from the NCI Developmental Therapeutics Program. […] The stock solutions were prepared in dimethyl sulfoxide (DMSO, Sigma-Aldrich, St. Louis, MO, cat. D2650) at 800-fold the tested concentration and stored at -70 degrees C prior to their use. All drugs and investigational agents were tested over a range starting from a high concentration at or near the clinical Cmax and decreasing in half-log increments. If the clinical Cmax for an agent had not been determined, the highest concentration tested was 10 microM.
NCI60 Cell Culture. NCI60 cell lines were obtained from the NCI Developmental Therapeutics Program Tumor Repository. For each lot of cells, the Repository performed Applied Biosystems AmpFLSTR Identifiler testing with PCR amplification to confirm consistency with the published Identifier STR profile for each cell line. Cells were kept in continuous culture for no more than 20 passages. The optimal seeding densities for each of the cell lines at each time point assessed were determined prior to performing the concentration response studies. Briefly, the NCI60 human tumor lines were grown as monolayers in RPMI 1640 medium supplemented with 10% FBS and 2 mmol/L L-glutamine.
An additional 2 lines were from the NCI60 cell line panel including melanomas, MALME-3M and SK-MEL-2. Pooled donor human umbilical vein endothelial cells (HUVEC, Lonza, cat. CC-2519) and human mesenchymal stem cells (hMSC, Lonza, cat. PT-2501) were purchased from Lonza (Walkersville, MD).
PDMR cell lines were grown in complete medium (DC medium): Dulbecco's modified Eagle's medium (DMEM)/F12 supplemented with 5% fetal bovine serum (FBS), 2 mM L-glutamine, 100 U/mL penicillin and 100 µg/ml streptomycin, 0.4 µg/ml hydrocortisone, 10 ng/ml epidermal growth factor (EGF) recombinant human protein, 24 µg/mL adenine, and 0.1 mg/mL primocin. During culture from frozen stock vials, PDMR cells were cultured in the same medium containing 10 µM Y-27632 (see Table 3). The PDCs were cultured in complete DMEM/F12 media without 10 microM Y-27632 dihydrochloride for at least two passages prior to the screen. The pooled donor HUVEC and hMSC were cultured in endothelial cell growth medium 2 (PromoCell, Heidelberg, Germany, cat. C-22011) and mesenchymal stem cell growth medium 2 (PromoCell, cat. C-28009), respectively. For all experiments, HUVEC and hMSC were used at passages </=5.
For the pre-screen, cell seeding densities were determined from a titration spanning the range from 5,000 to 313 cells per well. The mct-spheroids including 60% malignant cells, 25% HUVEC and 15% MSC dispensed as a mixture into U-bottom Ultra-Low Attachment 384-well plates (Corning, NY)
High-throughput Drug Combination Screening.
Prior to their inoculation into 384-well plates, malignant cells, HUVEC, and hMSC were removed from T flasks using TrypLE express (Thermo Fisher Scientific, cat. 12605036) and harvested by centrifugation for 5 min at 233 x g. […]
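Further: spheroids exposed to compounds for 7 days.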
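Wherever viability, T/C is given: 100% = DMSO vehicle wells.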

COC1CC2CCC(C)C(O)(O2)C(=O)C(=O)N2CCCCC2C(=O)OC(C(C)CC2CCC(OCCO)C(OC)C2)CC(=O)C(C)C=C(C)C(O)C(OC)C(=O)C(C)CC(C)C=CC=CC=C1C (stereo not given) + CC(C)NCC(C(=O)N1CCN(c2ncnc3c2C(C)CC3O)CC1)c1ccc(Cl)cc1
IC50 (second compound 0.3 µM): > 100 nM | IC50 (second compound 0.949 µM): 18.5 nM | IC50 (second compound 3 µM): 7.41 nM | IC50 (second compound 9.49 µM): 0.462 nM | IC50 (second compound 30 µM): < 0.316 nM | viability, T/C (second compound 0.3 µM, first compound 0.000316 µM): 110% | viability, T/C (second compound 0.3 µM, first compound 0.001 µM): 99.9% | viability, T/C (second compound 0.3 µM, first compound 0.00316 µM): 87.6% | viability, T/C (second compound 0.3 µM, first compound 0.01 µM): 69.1% | viability, T/C (second compound 0.3 µM, first compound 0.0316 µM): 56.6% | viability, T/C (second compound 0.3 µM, first compound 0.1 µM): 54.4% | viability, T/C (second compound 0.949 µM, first compound 0.000316 µM): 110% | viability, T/C (second compound 0.949 µM, first compound 0.001 µM): 97.4% | viability, T/C (second compound 0.949 µM, first compound 0.00316 µM): 68.8% | viability, T/C (second compound 0.949 µM, first compound 0.01 µM): 56.4% | viability, T/C (second compound 0.949 µM, first compound 0.0316 µM): 48.8% | viability, T/C (second compound 0.949 µM, first compound 0.1 µM): 35.6% | viability, T/C (second compound 3 µM, first compound 0.000316 µM): 88% | viability, T/C (second compound 3 µM, first compound 0.001 µM): 77.4% | viability, T/C (second compound 3 µM, first compound 0.00316 µM): 62.5% | outcome (second compound 3 µM, first compound 0.01 µM): inactive | outcome (second compound 3 µM, first compound 0.0316 µM): inactive | outcome (second compound 3 µM, first compound 0.1 µM): inactive | viability, T/C (second compound 9.49 µM, first compound 0.000316 µM): 56.3% | viability, T/C (second compound 9.49 µM, first compound 0.001 µM): 37.2% | viability, T/C (second compound 9.49 µM, first compound 0.00316 µM): 20.4% | viability, T/C (second compound 9.49 µM, first compound 0.01 µM): 11.9% | viability, T/C (second compound 9.49 µM, first compound 0.0316 µM): 9.65% | viability, T/C (second compound 9.49 µM, first compound 0.1 µM): 9.71% | viability, T/C (second compound 30 µM, first compound 0.000316 µM): 9.06% | viability, T/C (second compound 30 µM, first compound 0.001 µM): 7.48% | viability, T/C (second compound 30 µM, first compound 0.00316 µM): 3.65% | viability, T/C (second compound 30 µM, first compound 0.01 µM): 2.31% | viability, T/C (second compound 30 µM, first compound 0.0316 µM): 2.3% | viability, T/C (second compound 30 µM, first compound 0.1 µM): 2.06%

Cn1cnc2c(F)c(Nc3ccc(Br)cc3Cl)c(C(=O)NOCCO)cc21 + CC(C)NCC(C(=O)N1CCN(c2ncnc3c2C(C)CC3O)CC1)c1ccc(Cl)cc1
IC50 (second compound 0.3 µM): 91.3 nM | IC50 (second compound 0.949 µM): 77.9 nM | IC50 (second compound 3 µM): 54.8 nM | IC50 (second compound 9.49 µM): 15.1 nM | IC50 (second compound 30 µM): < 9.49 nM | viability, T/C (second compound 0.3 µM, first compound 0.00949 µM): 92.9% | viability, T/C (second compound 0.3 µM, first compound 0.03 µM): 83.4% | viability, T/C (second compound 0.3 µM, first compound 0.0949 µM): 48.7% | viability, T/C (second compound 0.3 µM, first compound 0.3 µM): 13.6% | viability, T/C (second compound 0.3 µM, first compound 0.949 µM): 1.29% | viability, T/C (second compound 0.3 µM, first compound 3 µM): 1.54% | viability, T/C (second compound 0.949 µM, first compound 0.00949 µM): 85.7% | viability, T/C (second compound 0.949 µM, first compound 0.03 µM): 76.6% | viability, T/C (second compound 0.949 µM, first compound 0.0949 µM): 45% | viability, T/C (second compound 0.949 µM, first compound 0.3 µM): 3.97% | viability, T/C (second compound 0.949 µM, first compound 0.949 µM): 0.63% | viability, T/C (second compound 0.949 µM, first compound 3 µM): 0.7% | viability, T/C (second compound 3 µM, first compound 0.00949 µM): 77% | viability, T/C (second compound 3 µM, first compound 0.03 µM): 76.2% | viability, T/C (second compound 3 µM, first compound 0.0949 µM): 26.3% | viability, T/C (second compound 3 µM, first compound 0.3 µM): 1.91% | viability, T/C (second compound 3 µM, first compound 0.949 µM): 0.35% | viability, T/C (second compound 3 µM, first compound 3 µM): 0.16% | viability, T/C (second compound 9.49 µM, first compound 0.00949 µM): 63% | viability, T/C (second compound 9.49 µM, first compound 0.03 µM): 30.6% | viability, T/C (second compound 9.49 µM, first compound 0.0949 µM): 10.7% | viability, T/C (second compound 9.49 µM, first compound 0.3 µM): 0.42% | viability, T/C (second compound 9.49 µM, first compound 0.949 µM): 0.35% | viability, T/C (second compound 9.49 µM, first compound 3 µM): 0.17% | viability, T/C (second compound 30 µM, first compound 0.00949 µM): 16.7% | viability, T/C (second compound 30 µM, first compound 0.03 µM): 4.78% | viability, T/C (second compound 30 µM, first compound 0.0949 µM): 0.34% | viability, T/C (second compound 30 µM, first compound 0.3 µM): 0.25% | viability, T/C (second compound 30 µM, first compound 0.949 µM): 0.15% | viability, T/C (second compound 30 µM, first compound 3 µM): 0.13%
